Measurements reported in publication PMC10369073, “Production, identification, in silico analysis, and cytoprotection on H2O2-induced HUVECs of novel angiotensin-I-converting enzyme inhibitory peptides from Skipjack tuna roes” (Frontiers in Nutrition, 2023).
Ends that are not written are not given here. Peptide text beside a SMILES is read from it.

Key:
[1] = system: H2O2-induced HUVECs; assay: Apoptosis rate of H2O2-induced HUVECs, Hoechst 33342; assay type: cell-based, human; conditions: 200 μM pretreatment, 300 μM H2O2, model 214.03 ± 7.11% control, mean ± SD, n = 3
Description: (§1) The HUVECs were cultured for 24 h in a 96-well plate. Subsequently, the supernatant was aspirated and 20 μL of GSH (200 μM) and ACEi peptides (100 or 200 μM) were added in the protection groups, respectively. After 24 h, ACEi peptides were removed and H2O2 with the final concentration of 300 μM was added into the damage and protection groups for incubating 24 h.
Cell treatments with ACEi peptides, GSH, and H2O2 were according to the above method ([50]). The morphology of HUVECs was observed and photographed using an inverted microscope (Nikon Corporation, Kyoto, Japan). The percentage of apoptotic HUVECs was analyzed using previous methods ([17], [50]).

[2] = system: H2O2-induced HUVECs; assay: NO production in H2O2-induced HUVECs (assay kit); assay type: cell-based, human; conditions: 200 μM pretreatment, 300 μM H2O2, model 15.54 ± 0.68 μM, mean ± SD, n = 3
Description: as §1
(§2) The level of ROS was determined using DCFH2-DA assay and expressed as % control ([50]). The levels of SOD (U/mgprot), GSH-Px (U/mgprot), NO (μmol/L), and MDA (nmol/mgprot) were measured using assay kits according to manufacturer’ protocols.

[3] = system: H2O2-induced HUVECs; assay: MDA content in H2O2-induced HUVECs (assay kit); assay type: cell-based, human; conditions: 200 μM pretreatment, 300 μM H2O2, model 27.94 ± 1.06, mean ± SD, n = 3
Description: as §1, §2

[4] = system: H2O2-induced HUVECs; assay: Viability of H2O2-induced HUVECs (oxidative damage model); assay type: cell-based, human; conditions: for cell viability of H2O2-induced HUVECs: 200 μM pretreatment 24 h, then 300 μM H2O2 24 h, model group 50.31 ± 2.19%, mean ± SD, n = 3, SD
Description: (§3) The viability of HUVECs treated by TRP3, TRP6, TRP9, and TRP12 was determined using MTT method. HUVECs were seeded in the 96-well plates, cultured for 24 h, and treated with ACEi peptides (100, 200, and 300 μM) at 37° C for 24 h. MTT (final content of 2 mg/mL) was added into cell culture. After 4 h, DMSO was added into each well and monitored at 490 nm. The cell viability (% control) was calculated.
The oxidative damage model of HUVECs was established according to the previous method ([50]). HUVECs were seeded in the 96-well plates, cultured for 24 h, and treated with […] H2O2 at 37°C.
as §1

[5] = system: H2O2-induced HUVECs; assay: SOD activity in H2O2-induced HUVECs (assay kit); assay type: cell-based, human; conditions: 200 μM pretreatment, 300 μM H2O2, model 108.57 ± 7.56, mean ± SD, n = 3
Description: as §1, §2

[6] = system: H2O2-induced HUVECs; assay: GSH-Px activity in H2O2-induced HUVECs (assay kit); assay type: cell-based, human; conditions: 200 μM pretreatment, 300 μM H2O2, model 26.95 ± 1.09, mean ± SD, n = 3
Description: as §1, §2

[7] = system: H2O2-induced HUVECs; assay: ROS level in H2O2-induced HUVECs, DCFH2-DA assay; assay type: cell-based, human; conditions: 200 μM pretreatment, 300 μM H2O2, model 146.6 ± 3.81%, mean ± SD, n = 3
Description: as §1, §2

[8] = system: HUVECs; assay: NO production in HUVECs (assay kit); assay type: cell-based, human; conditions: for NO content in NE-treated HUVECs: peptide 200 μM plus NE, NE alone 18.59 ± 0.82 μM; for NO level in HUVECs: peptide 200 μM, 24 h, control 33.68 ± 0.96 μM, mean ± SD, n = 3, SD
Description: (§4) HUVECs were cultured in DMEM supplemented with 100 µg/mL streptomycin, 10% FBS (v/v), and 100 U/mL penicillin at 37°C in a humidified 5% CO2 atmosphere for 24 h.
(§5) After treating with ACEi peptides (TRP3, TRP6, TRP9, or TRP12, respectively) for 24 h, NO and ET-1 contents were separately determined by employing human NO and ET-1 assay kit as per manufactures’ protocol ([18]).

[9] = biological target: T1, ACE (Oryctolagus cuniculus, UniProt P12822); assay: ACE inhibitory (ACEi) activity, FAPGG substrate, hippuric acid by HPLC at 228 nm; assay type: biochemical; conditions: at 1.5 mg/mL, mean ± SD, n = 3
T1 sequence (P12822 34-1310): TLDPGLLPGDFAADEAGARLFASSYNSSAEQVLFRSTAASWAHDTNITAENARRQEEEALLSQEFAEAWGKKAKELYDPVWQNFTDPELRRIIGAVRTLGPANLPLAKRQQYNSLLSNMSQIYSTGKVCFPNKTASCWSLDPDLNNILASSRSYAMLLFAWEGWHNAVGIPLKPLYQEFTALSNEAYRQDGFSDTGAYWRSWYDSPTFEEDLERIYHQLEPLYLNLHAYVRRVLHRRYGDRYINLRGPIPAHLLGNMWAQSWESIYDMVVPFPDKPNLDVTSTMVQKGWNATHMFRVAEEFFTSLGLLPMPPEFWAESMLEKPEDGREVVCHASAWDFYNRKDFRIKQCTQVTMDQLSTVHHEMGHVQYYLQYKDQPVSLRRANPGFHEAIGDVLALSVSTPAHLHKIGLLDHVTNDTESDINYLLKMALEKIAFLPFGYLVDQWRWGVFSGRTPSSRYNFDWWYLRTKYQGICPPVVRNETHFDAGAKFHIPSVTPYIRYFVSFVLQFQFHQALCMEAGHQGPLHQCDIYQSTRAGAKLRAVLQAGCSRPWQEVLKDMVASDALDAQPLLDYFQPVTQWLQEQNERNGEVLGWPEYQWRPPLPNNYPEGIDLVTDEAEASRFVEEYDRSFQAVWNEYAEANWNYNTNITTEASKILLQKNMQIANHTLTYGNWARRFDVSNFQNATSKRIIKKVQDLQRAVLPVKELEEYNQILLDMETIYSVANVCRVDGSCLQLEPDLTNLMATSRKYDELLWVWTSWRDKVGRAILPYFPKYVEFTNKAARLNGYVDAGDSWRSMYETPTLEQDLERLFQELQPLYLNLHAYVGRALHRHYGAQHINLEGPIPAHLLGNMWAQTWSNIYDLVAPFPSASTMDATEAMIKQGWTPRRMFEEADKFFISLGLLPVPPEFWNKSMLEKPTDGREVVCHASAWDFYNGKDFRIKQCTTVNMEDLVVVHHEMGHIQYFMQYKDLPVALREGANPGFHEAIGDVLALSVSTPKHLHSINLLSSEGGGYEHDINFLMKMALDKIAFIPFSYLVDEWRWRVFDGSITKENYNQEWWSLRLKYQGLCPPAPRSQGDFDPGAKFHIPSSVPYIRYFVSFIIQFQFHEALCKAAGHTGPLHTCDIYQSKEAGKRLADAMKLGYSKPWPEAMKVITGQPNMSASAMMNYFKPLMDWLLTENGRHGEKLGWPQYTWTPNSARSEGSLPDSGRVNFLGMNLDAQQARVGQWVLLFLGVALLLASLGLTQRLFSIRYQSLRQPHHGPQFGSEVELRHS
Description: The ACEi activity was measured by employing FAPGG as the substrate with the following modifications reported by Zhao et al. ([18]). In brief, the initial assay volume consisted of 50 μL of the substrate (3 mM), 50 μL of the ACE enzyme solution containing 1.25 mU of declared enzyme activity, and 50 μL of assay sample. All these solutions were incubated for 30 min at 37°C in a water bath first without mixing and then for an additional 30 min after mixing. ACE activity was stopped by 150 μL of glacial acetic acid. After that, the reaction mixture was separated by HPLC at 228 nm to determine the hippuric acid (HA) content produced due to ACE activity on the substrate. The control reaction mixture contained 50 μL of buffer instead of the assay sample and the control was expected to liberate the maximum amount of HA from the substrate due to uninhibited ACE activity. The percent inhibition of ACE activity was calculated as follows:
Inhibition activity(%)=[(HAcontrol−HAsample)/HAcontrol]×100%.
The IC50 value is the concentration of peptide inhibiting 50% activity of ACE.

[10] = system: HUVECs; assay: ET-1 secretion in HUVECs (assay kit); assay type: cell-based, human; conditions: for ET-1 content in NE-treated HUVECs: peptide 200 μM plus NE, NE alone 73.57 ± 3.09 pg./mL; for ET-1 content in HUVECs: peptide 200 μM, control 55.37 ± 2.53 pg./mL, mean ± SD, n = 3, SD
Description: as §4, §5

[11] = system: HUVECs; assay: Viability of HUVECs, MTT method; assay type: cell-based, human
Description: as §4, §3

Compound | total apoptosis ratio [1] | NO content [2] | MDA content [3] | cell viability of H2O2-induced HUVECs [4] | viability of HUVECs ([4]; H2O2 300 μM alone (model establishment)) | SOD activity [5] | GSH-Px activity [6] | ROS level [7] | NO content in NE-treated HUVECs [8] | NO level in HUVECs [8] | ACEi rate (ACEi activity) [9] | ET-1 content in NE-treated HUVECs [10] | ET-1 content in HUVECs [10] | cell viability ([11]; 300 μM, 24 h, MTT, % control, mean ± SD, n = 3) | cell viability ([11]; 300 µM, SD)
N[C@@H](CCC(=O)N[C@@H](CS)C(=O)NCC(=O)O)C(=O)O [GSH, Glutathione, reference compound] | 124.52 ± 4.82 % control | 26.98 ± 1.05 µM | 17.83 ± 0.87 nmol/mg prot | 78.33 ± 3.08% | – | – | – | – | – | – | – | – | – | – | –
OO [H2O2] | – | – | – | – | 49.65 ± 1.68% | – | – | – | – | – | – | – | – | – | –
CC[C@H](C)[C@H](N)C(=O)N[C@@H](CCCCN)C(=O)N[C@@H](CO)C(=O)N[C@@H](Cc1c[nH]c2ccccc12)C(=O)O [TRP6, Ile-Lys-Ser-Trp] (H-IKSW-OH; N-terminus and C-terminus assumed) | 171.21 ± 6.92 % control | 21.26 ± 0.59 µM | 20.52 ± 0.92 nmol/mg prot | – | – | 160.02 ± 9.04 U/mg prot | 42.35 ± 1.86 U/mg prot | 127.5 ± 4.32 % control | 26.51 ± 1.06 µM | 46.25 ± 1.39 µM | 75.41 ± 2.56% | 55.27 ± 2.19 pg/mL | 44.68 ± 1.69 pg/mL | – | –
CSCC[C@H](NC(=O)[C@H](Cc1c[nH]cn1)NC(=O)[C@H](CO)NC(=O)[C@@H](N)Cc1ccc(O)cc1)C(=O)O [TRP9, Tyr-Ser-His-Met] (H-YSHM-OH) | 135.37 ± 4.28 % control | 23.64 ± 0.82 µM | 19.88 ± 0.75 nmol/mg prot | 67.85 ± 3.05% | – | – | 45.36 ± 2.07 U/mg prot | 122.4 ± 4.47 % control | 28.79 ± 0.78 µM | 50.34 ± 1.45 µM | 83.49 ± 3.42% | 53.27 ± 2.34 pg/mL | 41.26 ± 2.09 pg/mL | 91.27 ± 4.05% | –
H-WGESF-OH [TRP3, Trp-Gly-Glu-Ser-Phe] | 173.12 ± 5.11 % control | 20.38 ± 0.67 µM | 21.76 ± 0.94 nmol/mg prot | – | – | 154.58 ± 3.94 U/mg prot | 38.46 ± 1.25 U/mg prot | 128.7 ± 5.2 % control | 23.69 ± 1.18 µM | 46.52 ± 1.29 µM | 69.54 ± 3.09% | 59.74 ± 2.42 pg/mL | 46.87 ± 2.03 pg/mL | – | 86.72 ± 4.45%
WSPGF [TRP12, Trp-Ser-Pro-Gly-Phe] | 162.08 ± 5.94 % control | 22.09 ± 0.81 µM | 21.08 ± 0.92 nmol/mg prot | – | – | – | 39.75 ± 1.63 U/mg prot | 123.7 ± 3.21 % control | 26.79 ± 1.34 µM | 46.32 ± 2.03 µM | 78.24 ± 2.81% | 54.71 ± 2.57 pg/mL | 45.28 ± 1.88 pg/mL | – | –
